According to patent US10183021B2, “sGC stimulators” (Ironwood Pharmaceuticals, Inc., priority 2013, dated 2019):
Like-named read-outs stand apart in the source and are kept apart here.

Molecular target: soluble guanylate cyclase (sGC) (Homo sapiens (Human), UniProt Q02108+Q02153)
Test: sGC-HEK-cGMP assay with SNP incubation, LC/MS detection (Example 2A)
Type: cell-based
Conditions: HEK293 cells, 10 μM SNP, LC/MS detection; for Emax: 100% = BAY 41-2272 at 10 μM, read-out: HEK assay Emax - unconstrained (%)
Protocol: Human embryonic kidney cells (HEK293), endogenously expressing soluble guanylate cyclase (sGC), were used to evaluate the activity of test compounds. Compounds stimulating the sGC receptor should cause an increase in the intracellular concentration of cGMP. HEK 293 cells were seeded in Dulbecco's Modification of Eagle's Medium supplemented with fetal bovine serum (10% final) and L-glutamine (2 mM final) in a 200 L volume at a density of 1×10^5 cells/well in a poly-D-lysine coated 96 well flat bottom plate and grown overnight at 37° C. Medium was aspirated and cells were washed with 1× Hank's Buffered Saline Salt Solution (200 μL). Cells were then incubated for 15 minutes at 37° C. with 200 μL of a 0.5 mM 3-isobutyl-1-methylxanthine (IBMX) solution. Test article and sodium nitroprusside solutions (x μM concentration for test article solution and 10 μM concentration for SNP solution; wherein x is one of the following concentrations: 30 μM, 10 μM, 3 μM, 1 μM, 0.3 μM, 0.1 μM, 0.03 μM, 0.01 μM, 0.003 μM, 0.001 μM, 0.0003 μM or 0.0001 μM) were then added to the assay mixture (2 μL each) and the resulting mixture incubated at 37° C. for 10 minutes. After the 10 minute incubation, the assay mixture was aspirated and 0.1M HCl (200 μL) was added to the cells. The plate was incubated at 4° C. for 30 minutes in the 0.1M HCl to stop the reaction and lyse the cells. The plates were then centrifuged at 1,200 g for 5 minutes at room temperature. Supernatants were collected and transferred to a new flat bottom 96 well plate for analysis by HPLC-MS. Vehicle controls were carried out using DMSO (1%) solutions. A known sGC stimulator, BAY 41-2272, was used as the positive control. Samples were diluted with an equal volume of 1 M Ammonium Acetate (pH 7) to neutralize samples for better chromatography. A 2× cGMP standard solution was prepared in 0.1 M HCl and then diluted with an equal volume of 1 M Ammonium Acetate, with the following final concentrations in nM: 1024, 512, 256, 128, 64, 32, 16, 8, 4, 2, 1. cGMP concentrations in the test plates were determined from each sample using the LC/MS conditions shown in Table 2 below and the calculated cGMP standard curve. EC50 values were calculated from concentration-response curves generated with GraphPad Prism Software. Data were normalized to a high control using the following equation: 100*(Sample−Low Control)/(High Control−Low Control), where the low control is the average of 6 samples treated with 1% DMSO, and the high control is the average of 8-12 samples treated with 10 uM BAY 41-2272. Data were fit using a non-linear regression, sigmoidal dose response, 3 parameter fits.

[1] = top of curve not fitted to 100%, read-out: HEK assay EC50 - unconstrained

Sequence of soluble guanylate cyclase (sGC) (Q02153 whole entry): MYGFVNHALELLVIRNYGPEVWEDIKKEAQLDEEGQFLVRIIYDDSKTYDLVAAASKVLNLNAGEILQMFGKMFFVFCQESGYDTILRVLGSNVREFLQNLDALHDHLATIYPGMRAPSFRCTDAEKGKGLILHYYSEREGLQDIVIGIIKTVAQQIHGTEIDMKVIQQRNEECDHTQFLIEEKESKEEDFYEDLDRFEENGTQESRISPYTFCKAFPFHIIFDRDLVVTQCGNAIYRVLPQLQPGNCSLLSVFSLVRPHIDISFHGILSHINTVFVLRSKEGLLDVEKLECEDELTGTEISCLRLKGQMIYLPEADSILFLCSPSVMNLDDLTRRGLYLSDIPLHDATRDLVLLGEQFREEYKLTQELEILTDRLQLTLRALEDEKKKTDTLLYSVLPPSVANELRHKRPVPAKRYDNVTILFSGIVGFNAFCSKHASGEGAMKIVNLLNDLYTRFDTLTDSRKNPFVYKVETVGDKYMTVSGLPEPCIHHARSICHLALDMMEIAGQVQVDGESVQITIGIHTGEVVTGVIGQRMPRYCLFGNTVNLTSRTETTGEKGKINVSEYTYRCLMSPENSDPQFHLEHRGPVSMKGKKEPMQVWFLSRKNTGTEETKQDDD
Sequence of soluble guanylate cyclase (sGC) (Q02108 whole entry): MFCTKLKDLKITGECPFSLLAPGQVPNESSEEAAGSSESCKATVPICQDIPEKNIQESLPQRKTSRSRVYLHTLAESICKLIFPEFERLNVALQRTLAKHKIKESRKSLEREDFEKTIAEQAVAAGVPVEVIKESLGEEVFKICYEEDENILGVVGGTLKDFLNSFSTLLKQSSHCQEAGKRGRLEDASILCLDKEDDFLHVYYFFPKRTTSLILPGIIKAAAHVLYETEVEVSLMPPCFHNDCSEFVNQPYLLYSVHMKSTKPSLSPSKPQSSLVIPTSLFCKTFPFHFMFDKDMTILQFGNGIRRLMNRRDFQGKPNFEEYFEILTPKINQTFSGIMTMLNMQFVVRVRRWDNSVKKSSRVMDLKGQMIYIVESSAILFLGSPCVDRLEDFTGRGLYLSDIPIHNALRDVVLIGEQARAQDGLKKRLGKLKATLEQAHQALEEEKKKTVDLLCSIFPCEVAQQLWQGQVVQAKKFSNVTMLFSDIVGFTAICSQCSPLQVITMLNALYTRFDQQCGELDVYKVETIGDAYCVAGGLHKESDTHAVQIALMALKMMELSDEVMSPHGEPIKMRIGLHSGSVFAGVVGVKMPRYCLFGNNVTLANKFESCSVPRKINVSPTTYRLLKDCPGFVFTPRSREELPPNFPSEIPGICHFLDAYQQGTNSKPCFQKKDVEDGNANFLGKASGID

| Emax [%] | EC50 [1] [µM] | EC50 (top of curve fitted to 100%, read-out: HEK assay EC50 - constrained) [µM] | SMILES |
| --- | --- | --- | --- |
| 80 to 100 | 0.001 to 0.1 | – | CCC(C)[C@H](C(=O)O)N(C)c1nc(-c2cc(-c3ccon3)n(Cc3ccccc3F)n2)ncc1F (stereo partly shown) [Compound I-247] |
| 60 to 80 | 0.1 to 0.5 | – | CC(C)[C@H](c1nnn[nH]1)N(C)c1nc(-c2cc(-c3ccon3)n(Cc3ccccc3F)n2)ncc1F [Compound I-237] |
| 60 to 80 | 1 to 5 | – | C[C@H](C[C@H](Nc1nc(-c2cc(-c3ccon3)n(Cc3ccccc3F)n2)ncc1F)C(=O)O)C(F)(F)F [Compound I-224] |
| 40 to 60 | 1 to 5 | – | CN(CC(=O)O)c1nc(-c2cc(-c3ccon3)n(Cc3ccccc3F)n2)ncc1F [Compound I-176] |
| 100 to 120 | 0.1 to 0.5 | – | CCOC(=O)CN(CC1CC1)c1nc(-c2cc(-c3ccon3)n(Cc3ccccc3F)n2)ncc1F [Compound I-201] |
| 100 to 120 | 0.1 to 0.5 | – | CC(C)CC(Nc1nc(-c2cc(-c3ccon3)n(Cc3ccccc3F)n2)ncc1F)C(=O)NS(C)(=O)=O (stereo not shown) [Compound I-259] |
| 80 to 100 | 0.001 to 0.1 | – | Oc1ccc(CNc2nc(-c3cc(-c4ccon4)n(Cc4ccccc4F)n3)ncc2F)cc1 [Compound I-286] |
| 60 to 80 | 0.1 to 0.5 | – | COC(=O)C1(N)CCN(c2nc(-c3cc(-c4ccon4)n(Cc4ccccc4F)n3)ncc2F)CC1 [Compound I-298] |
| 80 to 100 | 0.001 to 0.1 | – | O=C(O)C(CCNc1nc(-c2cc(-c3ccon3)n(Cc3ccccc3F)n2)ncc1F)c1ccccc1 (stereo not shown) [Compound I-292] |
| 80 to 100 | 0.001 to 0.1 | – | O=C(O)C12CCCC1CN(c1nc(-c3cc(-c4ccon4)n(Cc4ccccc4F)n3)ncc1F)C2 (stereo not shown) [Compound I-208] |
| 40 to 60 | 1 to 5 | – | Cc1noc(CN(C)c2nc(-c3cc(-c4ccon4)n(Cc4ccccc4F)n3)ncc2F)n1 [Compound I-223] |
| 60 to 80 | 0.5 to 1 | – | CCOC(=O)CN(CC(C)C)c1nc(-c2cc(-c3ccon3)n(Cc3ccccc3F)n2)ncc1F [Compound I-205] |
| 40 to 60 | 0.1 to 0.5 | – | Fc1ccccc1Cn1nc(-c2ncc(F)c(Nc3nnn[nH]3)n2)cc1-c1ccon1 [Compound I-276] |
| 80 to 100 | 0.1 to 0.5 | – | O=C(O)[C@H]1CC[C@@H](Nc2nc(-c3cc(-c4ccon4)n(Cc4ccccc4F)n3)ncc2F)C1 [Compound I-179] |
| 80 to 100 | 0.001 to 0.1 | – | CC(C)[C@H](CC(=O)O)Nc1nc(-c2cc(-c3ccon3)n(Cc3ccccc3F)n2)ncc1F [Compound I-182] |
| 80 to 100 | 0.1 to 0.5 | – | O=C(O)C1(CNc2nc(-c3cc(-c4ccon4)n(Cc4ccccc4F)n3)ncc2F)CCOCC1 [Compound I-194] |
| 80 to 100 | 0.1 to 0.5 | – | Oc1ccccc1CNc1nc(-c2cc(-c3ccon3)n(Cc3ccccc3F)n2)ncc1F [Compound I-288] |
| 80 to 100 | 0.1 to 0.5 | – | CN(c1nc(-c2cc(-c3ccon3)n(Cc3ccccc3F)n2)ncc1F)[C@@H](C(=O)O)C1CC1 [Compound I-241] |
| 80 to 100 | 1 to 5 | – | O=C(O)COC1CCN(c2nc(-c3cc(-c4ccon4)n(Cc4ccccc4F)n3)ncc2F)CC1 [Compound I-197] |
| 80 to 100 | 0.1 to 0.5 | – | CC(C)[C@@H](CC(=O)O)N(C)c1nc(-c2cc(-c3ccon3)n(Cc3ccccc3F)n2)ncc1F [Compound I-202] |
| 80 to 100 | 0.5 to 1 | – | CN(c1nc(-c2cc(-c3ccon3)n(Cc3ccccc3F)n2)ncc1F)C(CC(F)(F)F)C(=O)O (stereo not shown) [Compound I-244] |

The remaining lines, values behind:

| SMILES | Emax [%] | EC50 [1] [µM] | EC50 (top of curve fitted to 100%, read-out: HEK assay EC50 - constrained) [µM] |
| --- | --- | --- | --- |
| CC(C)(C)[C@H](Nc1nc(-c2cc(-c3ccon3)n(Cc3ccccc3F)n2)ncc1F)C(=O)O [Compound I-151] | 60 to 80 | 0.5 to 1 | – |
| CC(C)(C)OC(=O)N1CCC2(CCN(c3nc(-c4cc(-c5ccon5)n(Cc5ccccc5F)n4)ncc3F)C2)C1 (stereo not shown) [Compound I-45] | 40 to 60 | 1 to 5 | – |
| O=C(O)[C@H](CO)Nc1nc(-c2cc(-c3ccon3)n(Cc3ccccc3F)n2)ncc1F [Compound I-68] | 60 to 80 | 5 to 10 | – |
| O=C(O)[C@@H](CO)Nc1nc(-c2cc(-c3ccon3)n(Cc3ccccc3F)n2)ncc1F [Compound I-112] | 20 to 40 | 1 to 5 | – |
| CS(=O)(=O)N1CCN(c2nc(-c3cc(-c4ccon4)n(Cc4ccccc4F)n3)ncc2F)CC1 [Compound I-125] | 40 to 60 | 0.001 to 0.1 | – |
| CC(C)[C@@H](Nc1nc(-c2cc(-c3ccon3)n(Cc3ccccc3F)n2)ncc1F)C(=O)O [Compound I-86] | 80 to 100 | 0.1 to 0.5 | – |
| O=C1CCCCCN1CCCNc1nc(-c2cc(-c3ccon3)n(Cc3ccccc3F)n2)ncc1F [Compound I-109] | 60 to 80 | 0.1 to 0.5 | – |
| CC(C)(C)OC(=O)NS(=O)(=O)N1CCN(c2nc(-c3cc(-c4ccon4)n(Cc4ccccc4F)n3)ncc2F)CC1 [Compound I-139] | 80 to 100 | 0.1 to 0.5 | – |
| Fc1ccccc1Cn1nc(-c2ncc(F)c(NCc3nn[nH]n3)n2)cc1-c1ccon1 [Compound I-146] | 80 to 100 | 0.1 to 0.5 | – |
| CC1COCCN1c1nc(-c2cc(-c3ccon3)n(Cc3ccccc3F)n2)ncc1F (stereo not shown) [Compound I-33] | 60 to 80 | 0.1 to 0.5 | – |
| OC[C@H]1CCCN1c1nc(-c2cc(-c3ccon3)n(Cc3ccccc3F)n2)ncc1F [Compound I-155] | 60 to 80 | 0.1 to 0.5 | – |
| CN(c1ccccc1C(=O)O)c1nc(-c2cc(-c3ccon3)n(Cc3ccccc3F)n2)ncc1F [Compound I-153] | 60 to 80 | 0.1 to 0.5 | – |
| COC(=O)C1CCCCN1c1nc(-c2cc(-c3ccon3)n(Cc3ccccc3F)n2)ncc1F (stereo not shown) [Compound I-48] | 60 to 80 | 1 to 5 | – |
| Fc1ccccc1Cn1nc(-c2ncc(F)c(N3CCC4(CC3)COC4)n2)cc1-c1ccon1 [Compound I-42] | 80 to 100 | 0.1 to 0.5 | – |
| CC(CN(C)c1nc(-c2cc(-c3ccon3)n(Cc3ccccc3F)n2)ncc1F)C(=O)O (stereo not shown) [Compound I-170] | 60 to 80 | 0.1 to 0.5 | – |
| CC1(C)CN(c2nc(-c3cc(-c4ccon4)n(Cc4ccccc4F)n3)ncc2F)CC1C(=O)O (stereo not shown) [Compound I-152] | 80 to 100 | 0.001 to 0.1 | – |
| CC(C)(C)OC(=O)NC1CCCN(c2nc(-c3cc(-c4ccon4)n(Cc4ccccc4F)n3)ncc2F)C1 (stereo not shown) [Compound I-25] | 40 to 60 | 0.5 to 1 | – |
| CC(C)[C@@H](CNc1nc(-c2cc(-c3ccon3)n(Cc3ccccc3F)n2)ncc1F)C(=O)O [Compound I-173] | 60 to 80 | 0.1 to 0.5 | – |
| COc1nc(-c2cc(-c3ccon3)n(Cc3ccccc3F)n2)nc(N2CCOCC2)c1F [Compound I-172] | – | – | > 10 |
| O=C(O)[C@@H](Nc1nc(-c2cc(-c3ccon3)n(Cc3ccccc3F)n2)ncc1F)c1ccccc1 [Compound I-117] | 40 to 60 | 1 to 5 | – |
| CC1(Nc2nc(-c3cc(-c4ccon4)n(Cc4ccccc4F)n3)ncc2F)CCOCC1 [Compound I-64] | 80 to 100 | 0.001 to 0.1 | – |
| CCOC(=O)CN(C)c1nc(-c2cc(-c3ccon3)n(Cc3ccccc3F)n2)ncc1F [Compound I-167] | 80 to 100 | 0.001 to 0.1 | – |
| OC[C@@H]1CCCN1c1nc(-c2cc(-c3ccon3)n(Cc3ccccc3F)n2)ncc1F [Compound I-13] | 60 to 80 | 0.1 to 0.5 | – |
| NC(=O)C1CCCN(c2nc(-c3cc(-c4ccon4)n(Cc4ccccc4F)n3)ncc2F)C1 (stereo not shown) [Compound I-66] | 60 to 80 | 0.1 to 0.5 | – |
| Fc1ccccc1Cn1nc(-c2ncc(F)c(N3CCCC4(COC4)C3)n2)cc1-c1ccon1 [Compound I-47] | 40 to 60 | 0.1 to 0.5 | – |
| Cc1noc(C2CCCCN2c2nc(-c3cc(-c4ccon4)n(Cc4ccccc4F)n3)ncc2F)n1 (stereo not shown) [Compound I-98] | 40 to 60 | 1 to 5 | – |
| CC(C)(C)[C@@H](Nc1nc(-c2cc(-c3ccon3)n(Cc3ccccc3F)n2)ncc1F)C(=O)O [Compound I-148] | 80 to 100 | 0.1 to 0.5 | – |
| O=C(O)C1(CNc2nc(-c3cc(-c4ccon4)n(Cc4ccccc4F)n3)ncc2F)CC1 [Compound I-210] | 100 to 120 | 0.001 to 0.1 | – |
